Assays:
[1] = cited from earlier work
[2] = hydroxylase activity using ferredoxin as a mediator, absorbance at 340 nm; type: biochemical; conditions: 0.5 mM 25-hydroxyvitamin D3, ferredoxin/ferredoxin reductase/NADPH, 90 seconds, 30° C.
Description: VDH obtained by the above-described method and ferredoxin were used to measure hydroxylase activity using 25-hydroxyvitamin D3, which is a vitamin D derivative, as a substrate.
4.19 mg of 25-hydroxyvitamin D3 was dissolved in 1 ml of DMSO (final concentration: 10 mM). Since 25-hydroxyvitamin D3 is lipid-soluble, it was diluted to 1 mM (concentration at the time of measurement: 0.5 mM) using 4.0% (v/v) TritonX-100 solution to maintain solubility.
After incubating 500 μl of the measurement reagent consisting of the composition of Table 2 at 30° C. for 3 minutes, 500 μl of the substrate reagent was added, and the absorbance (Abs) at the wavelength 340 nm was measured over time for 90 seconds using a spectrophotometer (U-3900, manufactured by Hitachi High-Tech Science Corporation). […] Therefore, it was shown that 25-hydroxyvitamin D can be quantified by hydroxylase activity of VDH using ferredoxin as a mediator.

## 25-hydroxyvitamin D
[1]; in vivo
  blood half-life: 2-3 weeks

## 1,25-dihydroxyvitamin D
[1]; in blood
  half-life in the blood: about 15 hours

B1: VDH: Vitamin D hydroxylase derived from Pseudonocardia autotrophica NBRC12743 strain, SEQ ID NO: 1, expressed in E. coli (protein, listed as Pseudonocardia autotrophica)
chain: MALTTTGTEQHDLFSGTFWQNPHPAYAALRAEDPVRKLALPDGPVWLLTRYADVREAFVDPRLSKDWRHTLPEDQRADMPATPTPMMILMDPPDHTRLRKLVGRSFTVRRMNELEPRITEIADGLLAGLPTDGPVDLMREYAFQIPVQVICELLGVPAEDRDDFSAWSSVLVDDSPADDKNAAMGKLHGYLSDLLERKRTEPDDALLSSLLAVSDEDGDRLSQEELVAMAMLLLIAGHETTVNLIGNGVLALLTHPDQRKLLAEDPSLISSAVEEFLRFDSPVSQAPIRFTAEDVTYSGVTIPAGEMVMLGLAAANRDADWMPEPDRLDITRDASGGVFFGHGIHFCLGAQLARLEGRVAIGRLFADRPELALAVGLDELVYRESTLVRGLSRMPVTMGPRSA
[2]
  change in absorbance (A340) compared to the blank: significant change in absorbance

From US20240102075A1, “METHOD FOR QUANTIFYING 25-HYDROXYVITAMIN D, HYDROXYLASE, QUANTIFICATION COMPOSITION, QUANTIFICATION KIT, ELECTRODE, SENSOR CHIP, AND SENSOR” (KIKKOMAN CORPORATION, priority 2021, published 2024)
